melting point | Compound
127 to 128 °C | CC=Cn1c(C(O)(c2ccc(Cl)cc2)c2ccc(Cl)cc2)nc(C)c1C
68 to 69 °C | CCSc1cnc(Oc2ccc(Cl)c(Cl)c2)cc1C#N
149 to 151 °C | CCCCCc1ccc(OC(=O)c2ccc(O)cc2Cl)cc1
114 to 115 °C | CCCCCCNC(=O)c1cnc(OCC(O)CNC(C)C)nc1 (configuration not stated)
70 to 75 °C | O=C(Nc1ccc(F)c([N+](=O)[O-])c1)C(F)(F)F
95 to 96 °C | COc1cc2c(cc1OC)CC(=O)N(CCC=O)C=C2
193 °C | COc1cncc(-c2ccc(OC3SCC(O)C(O)C3O)cn2)c1 (configuration not stated)
135 to 136 °C | CCOC(=O)C1=C(C)NC(C)=C(C(=O)N[C@H](C(=O)OCC)C(C)C)[C@@H]1c1cccc([N+](=O)[O-])c1
215 to 217 °C | COc1ccc(-c2nnc(Nc3ccc4cccnc4c3)cc2-c2ccc(C(F)(F)F)cc2)cc1
135 to 137 °C | CCCCc1nc(C(=O)C(C)(C)C)c(C#N)[nH]1
136 °C | O=S(=O)(CC(Cl)(c1ccccc1)c1cc(Cl)ccc1Cl)CC(Cl)(c1ccccc1)c1cc(Cl)ccc1Cl (configuration not stated)
238 to 240 °C | CC(C)(C)CNc1ccnc2sc(C(N)=O)c(N)c12
273 to 278 °C | CCOC(=O)c1ncc2[nH]c3ccc(NC(C)=O)cc3c2c1C
143 to 146 °C | CCCc1c(OCC2COc3cc(CC(=O)O)ccc3O2)ccc(C(C)=O)c1O (configuration not stated)
52 to 54 °C | C=CCONC(CCC)=C1C(=O)C=C(C)OC1=O
172 to 177 °C | COc1nc(N)nc2c1CCO2
284 to 285 °C | ON1C=CN(c2ccccc2)N1
263 to 266 °C | Cn1nc(-c2ccc(C(=N)N)cc2)cc(C(=O)N[C@H]2CC[C@H](C(=O)O)CC2)c1=O
216 to 218 °C | N#Cc1cccc(-n2c(=O)c(C(=O)Cc3ccccc3)c(O)c3cccnc32)c1
274 to 276 °C | O=C(Nc1ccncc1)C1=C(O)CCn2c1nc1ccccc12
58 to 60 °C | Fc1ccc2c(c1)[C@H]1N[C@@H](CNC(c3ccccc3)(c3ccccc3)c3ccccc3)C[C@@H]1c1ccccc1C2
169 to 172 °C | O=C(O)c1cc(NC(=O)C(CS)Cc2ccccc2)c[nH]1 (configuration not stated)

melting point | Compound
86 to 88 °C | CCOP(=O)(CCOc1ccc(C(=O)O)cc1)OCC
74 to 77 °C | COC(=O)Cc1ccc(-c2ccc(F)cc2F)c(F)c1
111 to 123 °C | O=C(NO)[C@H]1CN(C(=O)NC2CCCCC2)CCN1S(=O)(=O)c1ccc(-c2ccc(F)cc2)s1
175 to 176 °C | COC(=O)c1ccc(Cc2c(Cl)n(C)c3cc(Cl)c(CC(C)NC(=O)N(C)C)cc23)c(OC)c1 (configuration not stated)
105 to 108 °C | CCN(CC)c1ccc(C(=O)Cn2ncc(-c3ccc(S(C)(=O)=O)cc3)c(-c3ccc(F)cc3)c2=O)cc1
120 to 123 °C | COc1cc(Nc2c(C#N)cnc3cc(-c4ccc(CN5CCC(O)CC5)s4)ccc23)c(Cl)cc1Cl
97 °C | COc1ccc(F)cc1C(C)(C)c1cc(Cl)ccc1O
190 to 193 °C | CCOC(=O)C(C#N)=CNc1csc(-c2ccccc2)c1
187 to 188 °C | ON=Cc1ccc(-c2ccc(O)c(F)c2)c2ccccc12
188 to 189 °C | COc1cc(C(=O)CC(=O)c2ccccc2O)cc([N+](=O)[O-])c1OC
178 to 179 °C | CCOC(=O)c1c(CCl)nc2sc3c(c2c1-c1ccc(OC)c(OC)c1)CCCN3C(=O)OCc1ccccc1
176 to 177 °C | CCCS(=O)(=O)c1cc([C@H]2C[C@H](c3cc(OC)c(OC)c(OC)c3)CO2)cc(OC)c1OCc1ccccc1 (relative stereo)
132 °C | O=C(Nc1ccc2c(c1)C=CC2)C(F)(F)F
118 to 120 °C | NC(=O)NN=Cc1ccc(Cc2ccccc2)cc1
> 290 °C | O=C1C(c2c[nH]c3ccccc23)=C(c2c[nH]c3ccccc23)C(=O)N1c1ccccc1
67 to 68 °C | CSCOc1cc(Cl)ccc1C=O
29 to 30 °C | CCC(C)(C)NC(=O)C(=O)c1ccccc1
148 to 151 °C | CCSCCC(=O)NCC(=O)N1Cc2ccccc2Oc2ccc(Cl)cc21
201 to 202 °C | CCOCc1nc2c(N)nc3ccccc3c2n1CCNC(=O)OC(C)(C)C
160 to 161 °C | CCCCNc1cc(-c2ccccc2)nc2nn(C)cc12
306 to 307 °C | CCn1ncc2c1ncc1c(=O)n3nc(C)cc3n(C)c12
190 to 191 °C | COc1cc(-c2c(Cl)c(CN3CCCC3=O)nc3sc4c(c23)CCN(Cc2ccccc2)C4)ccc1O

melting point | Compound
214 to 219 °C | CC(=O)OCC(=O)C1(O)C(C)CC2C3CCC4=CC(=O)CCC4(C)C3C(=O)CC21C (configuration not stated)
213 °C | Cc1ccc(S(=O)(=O)NC(=O)OCCc2ccc(-n3c(C(C)C)nc4c(C)nc(C)cc43)cc2)cc1
179 to 181 °C | CC(=O)C1=C(O)C(=C(C)Nc2ccccc2N)C(=O)OC1=O
161 to 162 °C | COc1cc(/C(C#N)=C\c2ccc(C)c(N)c2)cc(OC)c1OC
235 to 238 °C | CNC(=O)NS(=O)(=O)c1cccc2c1OS(=O)(=O)C(C)C2 (configuration not stated)
52 to 56 °C | O=C(O)C1=CCC2CC(=O)C12 (configuration not stated)
62 to 64 °C | Nc1ccccc1OCc1ccc2ccccc2n1
161 to 164 °C | C=CCCn1c2ccc(OC)cc2c2c3c(c(-c4ccccc4Cl)cc21)C(=O)N(Cc1ccc(OC)cc1OC)C3=O
86 to 88 °C | CN(CC#CC1=Cc2ccccc2Sc2ccc(Cl)cc21)CCO
205 °C | O=C(Nc1ccn(CC(O)CF)c(=O)n1)c1ccccc1 (racemic)
36 to 38 °C | CC(C)(C)[Si](C)(C)Oc1ccc([N+](=O)[O-])cc1
159 to 161 °C | O=C1Nc2ccc(-c3cccc(Cl)c3)cc2C1=O
158 to 160 °C | CC(C)(C)OC(=O)NCCN(CCC12CC3CC(CC(C3)C1)C2)C(=O)NCCCc1ccncc1
87 to 89 °C | O=C(CBr)c1cc(-c2cccc(C(F)(F)F)c2)nc(C(F)(F)F)c1
265 to 272 °C | CC1(CNC(=O)C(F)(F)F)CN(c2cc3c(cc2F)c(=O)c(C(=O)O)cn3C2CC2)C1
116 to 121 °C | Nc1ccc(OC(=O)C2CCCCC2)c(C(=O)O)c1
214 to 216 °C | O=C(Cc1c(-c2cccnc2)c2cc(CN3CCN(c4ccccc4)CC3)c(Cl)cc2oc1=O)Nc1ccc(Cl)cc1C(F)(F)F
199 to 201 °C | CNS(=O)(=O)c1ccccc1Nc1nc(Nc2ccc3c(c2)CCN(S(C)(=O)=O)CC3)ncc1Cl
115 °C | CCOCOCCCc1ccc(C(=O)O)cc1C12CC3CC(CC(C3)C1)C2
81 to 83 °C | COc1cc2c(c(OC(C)=O)c1)C1CCC3(C)C(OC)CCC3C1CC2 (configuration not stated)
210 to 211 °C | Nc1nc(N)c(-c2ccc(Cl)cc2Cl)c(CF)n1
91.6 to 91.9 °C | CCCCCCc1ccc(-c2ccc(-c3ncc(C(=O)OCC)c(O)n3)cc2)cc1

melting point | Compound
143 to 144 °C | COc1cc(OC)cc(N2CCN(C(=O)N(C)c3nc4ccccc4nc3OC)CC2)c1
210 to 212 °C | Cc1cc(C)c(-c2cn(C)c3nc(N4CCCCC4)n(C)c(=O)c23)c(C)c1
187 to 188 °C | Cc1cc2oc(=O)c3c(c2cc1[N+](=O)[O-])CCN(CCN1CC2CCC(CC2)C1)C3
177 to 178 °C | Cn1ncc(/C=C/C(=O)Nc2ccc(CCc3nnco3)cc2)c1-c1ccc(F)cc1
204 to 207 °C | O=C(O)c1cn(-c2ccc(F)cc2)c2cc(N3CCNC(COc4ccccc4)C3)c(F)cc2c1=O (configuration not stated)
210 to 212 °C | COc1cc(C(=O)N(C(C)C)C2CCCCC2)ccc1Cn1c(C)nc2cccnc21
167 to 168 °C | CSc1cccc(-c2ccccc2)c1S(N)(=O)=O
57 to 58 °C | OCc1ccc(-c2ccc(OC(F)(F)F)cc2)nc1
135 to 138 °C | COc1cc(C)nc(C)c1C(=O)OC(C)c1nc2c(c(=O)n(C)c(=O)n2C)n1C (configuration not stated)
99 °C | CN1C(=O)CC=C2c3ccc(Cl)cc3CCC21 (configuration not stated)
278 to 279 °C | Cc1nc(-n2cn[nH]c2=O)sc1C(=O)NCc1cccnc1
193 to 194 °C | N#Cc1c(F)nn(-c2c(Cl)cc(C(F)(F)F)cc2Cl)c1N
162 to 163 °C | COc1ccc(S(=O)(=O)N2C(=O)C(OC(=O)Oc3ccccc3)(c3ccccc3Cl)c3cc(Cl)c(OC)cc32)c(OC)c1 (configuration not stated)
140 °C | N#CCc1ccc(F)cc1C(=O)O
112 to 115 °C | CCCCCCCCCCCCOS(=O)(=O)NC(=O)Nc1c(C(C)C)cccc1C(C)C
194 to 195 °C | CSc1nc(=O)n(Cc2ccccc2)c2ncn(COCc3ccccc3)c12
103 to 104 °C | CNC(=C[N+](=O)[O-])NCCSCc1nccs1
215 to 218 °C | COC(=O)Cn1c(=O)[nH][nH]c1=O
226 to 228 °C | COC(=O)[C@H]1C[C@H](NC(=O)Cc2ccccc2)c2c(Cl)cc(Cl)cc2N1 (relative stereo)
249 to 251 °C | CNC(=O)Nc1snc(C)c1[N+](=O)[O-]
110 to 111 °C | CCOC(=O)COc1cc(O)c2c(c1Cl)OC1(CCCCC1)CC2=O
250 to 255 °C | COc1ccc2[nH]c(C(=O)N3CC(CCl)c4c3cc(N)c3ccccc43)cc2c1 (configuration not stated)

Compound | melting point
CN1CCN=C(c2ccccc2)c2cc([N+](=O)[O-])ccc21 | 186 to 187 °C
Cn1nnc(-c2ccc3[nH]cc(C4=CCN(CCN5CCNC5=O)CC4)c3c2)n1 | 249 to 252 °C
CCCn1cc(C(=O)c2cccc3ccccc23)cc1C(=O)O | 145 °C
COC(=O)c1nc(CN2CCOCC2)n(-c2ccc(Cl)cc2C(=O)c2ccccc2Cl)n1 | 141 to 143 °C
Cc1cccc(NC(=O)NC2N=C(C3CCCCC3)c3cccc(C)c3N(C)C2=O)c1 (configuration not stated) | 196 to 198 °C
ClCCN1c2ccc(Cl)cc2C(c2ccsc2)=NCC1CCl (configuration not stated) | 115 to 116 °C
CN1C(=O)C(CC(=O)Nc2ccc(Cl)cc2)N=C(c2ccccc2)c2ccccc21 (configuration not stated) | 238 to 240 °C
CC(C)c1cc2c(c(O)c1O)C1(C(=O)O)CCCC(C)(C)C1CC2 (configuration not stated) | 193 to 199 °C
N#CC1(Nc2ccccc2)CCN(C2CCC(c3ccc(F)cc3)(c3ccc(F)cc3)CC2)CC1 | 139 to 140 °C
